Target: Cyclin-dependent kinase 1 (Homo sapiens, UniProt P06493)
Assay: Inhibition of CDK1

Chain of Cyclin-dependent kinase 1 (P06493 whole entry): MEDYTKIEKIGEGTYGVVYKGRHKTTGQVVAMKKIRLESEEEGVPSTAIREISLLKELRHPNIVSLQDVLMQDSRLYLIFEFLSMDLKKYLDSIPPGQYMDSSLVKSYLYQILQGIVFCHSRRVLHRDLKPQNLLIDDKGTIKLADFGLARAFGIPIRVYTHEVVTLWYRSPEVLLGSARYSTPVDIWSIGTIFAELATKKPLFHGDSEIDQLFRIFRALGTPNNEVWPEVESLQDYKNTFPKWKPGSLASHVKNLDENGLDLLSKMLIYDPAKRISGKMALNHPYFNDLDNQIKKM

SMILES	IC50 [nM]
Cc1cc(C)c2c(c1)C(C=Nc1ccc(S(N)(=O)=O)cc1)C(=O)N2 (stereo not drawn)	> 1000
Cc1cc(Cl)cc2c1NC(=O)C2C=Nc1ccc(S(N)(=O)=O)cc1 (stereo not drawn)	> 1000
Cc1cccc2c1NC(=O)C2C=Nc1ccc(S(N)(=O)=O)cc1 (stereo not drawn)	> 1000
